# Data taken from article PMC8820799, “Angiogenesis and anti-leukaemia activity of novel indole derivatives as potent colchicine binding site inhibitors” (Journal of Enzyme Inhibition and Medicinal Chemistry, 2022).
# What was measured:
# [1] = biological target: T1, Tubulin isolated from porcine brain tissue (Sus scrofa, UniProt P02550+P02554); assay: Tubulin polymerisation assay; format: biochemical; details: triplicate, mean ± SD; read-out: Tubulin (tubulin inhibitory polymerisation IC50)
# T1 construct: purchased Cytoskeleton (Denver, CO), via Beyotime, China; host or cells: porcine brain tissue
# T1 sequence (P02554 whole entry): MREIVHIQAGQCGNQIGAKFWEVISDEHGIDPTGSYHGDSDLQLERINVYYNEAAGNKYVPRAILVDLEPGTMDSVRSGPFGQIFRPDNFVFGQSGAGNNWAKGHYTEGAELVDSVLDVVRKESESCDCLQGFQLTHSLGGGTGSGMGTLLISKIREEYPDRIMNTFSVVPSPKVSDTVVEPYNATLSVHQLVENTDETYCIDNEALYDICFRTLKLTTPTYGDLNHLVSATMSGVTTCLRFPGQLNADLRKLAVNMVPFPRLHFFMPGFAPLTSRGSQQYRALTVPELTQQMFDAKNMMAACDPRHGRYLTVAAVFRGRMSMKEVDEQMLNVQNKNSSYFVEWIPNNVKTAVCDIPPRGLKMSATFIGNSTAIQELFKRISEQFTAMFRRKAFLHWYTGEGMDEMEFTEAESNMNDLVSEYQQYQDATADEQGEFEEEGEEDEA
# T1 sequence (P02550 whole entry): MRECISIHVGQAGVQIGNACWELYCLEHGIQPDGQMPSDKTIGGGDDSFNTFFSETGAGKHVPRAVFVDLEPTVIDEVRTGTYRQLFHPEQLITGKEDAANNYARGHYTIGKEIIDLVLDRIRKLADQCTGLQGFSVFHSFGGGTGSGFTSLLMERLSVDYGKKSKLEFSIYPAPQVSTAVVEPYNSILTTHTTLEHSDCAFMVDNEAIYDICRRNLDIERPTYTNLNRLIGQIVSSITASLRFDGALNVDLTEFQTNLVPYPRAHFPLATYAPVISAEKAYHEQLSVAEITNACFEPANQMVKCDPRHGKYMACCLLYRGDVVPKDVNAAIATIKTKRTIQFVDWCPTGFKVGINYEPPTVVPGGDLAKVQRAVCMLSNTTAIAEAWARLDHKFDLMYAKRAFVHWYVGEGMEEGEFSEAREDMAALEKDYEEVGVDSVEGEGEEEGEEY
# Description: Tubulin polymerisation was determined with the tubulin polymerisation assay kit (Cytoskeleton, Denver, CO which was purchased from Cytoskeleton, Beyotime, China. Tubulin isolated from porcine brain tissue was used in this commercial kit.) It is based on the principal that light is scattered by microtubules to an extent that is proportional to the concentration of the microtubule polymer. Compounds that interact with tubulin will alter the polymerisation of tubulin, and this can be detected using a spectrophotometer. Tubulin polymerisation dynamics was monitored through measuring the change of absorbance at 340 nm every 2 min for 30 min at 37 °C on a spectrophotometer.
Structure (SMILES),IC50 [1] [µM],melting point [°C]
"Cn1cc(/C=C/C(=O)c2ccccc2)c2ccccc21 [Compound 23a, (E)-3–(1-Methyl-1H-indol-3-yl)-1-phenylprop-2-en-1-one]",> 100,
"CCn1cc(/C=C/C(=O)c2ccccc2)c2ccccc21 [Compound 23b, (E)-3–(1-Ethyl-1H-indol-3-yl)-1-phenylprop-2-en-1-one]",> 100,165 to 168
"CCCn1cc(/C=C/C(=O)c2ccccc2)c2ccccc21 [Compound 23c, (E)-1-Phenyl-3–(1-propyl-1H-indol-3-yl)prop-2-en-1-one]",> 100,161 to 162
"O=C(/C=C/c1cn(Cc2ccccc2)c2ccccc12)c1ccccc1 [Compound 23d, (E)-3–(1-Benzyl-1H-indol-3-yl)-1-phenylprop-2-en-1-one]",68.6 ± 3.2,161 to 163
"O=C(/C=C/c1cn(S(=O)(=O)c2ccccc2)c2ccccc12)c1ccccc1 [Compound 23e, (E)-1-Phenyl-3–(1-(phenylsulfonyl)-1H-indol-3-yl)prop-2-en-1-one]",> 100,165 to 168
"Cn1cc(/C=C/C(=O)c2cccc(Cl)c2)c2ccccc21 [Compound 24a, (E)-1–(3-Chlorophenyl)-3–(1-methyl-1H-indol-3-yl)prop-2-en-1-one]",> 100,173 to 175
"CCn1cc(/C=C/C(=O)c2cccc(Cl)c2)c2ccccc21 [Compound 24b, (E)-1–(3-Chlorophenyl)-3–(1-ethyl-1H-indol-3-yl)prop-2-en-1-one]",> 100,165 to 168
"CCCn1cc(/C=C/C(=O)c2cccc(Cl)c2)c2ccccc21 [Compound 24c, (E)-1–(3-Chlorophenyl)-3–(1-propyl-1H-indol-3-yl)prop-2-en-1-one]",> 100,161 to 162
"O=C(/C=C/c1cn(Cc2ccccc2)c2ccccc12)c1cccc(Cl)c1 [Compound 24d, (E)-3–(1-Benzyl-1H-indol-3-yl)-1–(3-chlorophenyl)prop-2-en-1-one]",> 100,161 to 163
"O=C(/C=C/c1cn(S(=O)(=O)c2ccccc2)c2ccccc12)c1cccc(Cl)c1 [Compound 24e, (E)-1–(3-Chlorophenyl)-3–(1-(phenylsulfonyl)-1H-indol-3-yl)prop-2-en-1-one]",92.3 ± 2.4,165 to 168
"Cn1cc(/C=C/C(=O)c2ccc(Cl)cc2)c2ccccc21 [Compound 25a, (E)-1–(4-chlorophenyl)-3–(1-methyl-1H-indol-3-yl)prop-2-en-1-one]",> 100,171 to 173
"CCn1cc(/C=C/C(=O)c2ccc(Cl)cc2)c2ccccc21 [Compound 25b, (E)-1–(4-chlorophenyl)-3–(1-ethyl-1H-indol-3-yl)prop-2-en-1-one]",> 100,165 to 168
"CCCn1cc(/C=C/C(=O)c2ccc(Cl)cc2)c2ccccc21 [Compound 25c, (E)-1–(4-chlorophenyl)-3–(1-propyl-1H-indol-3-yl)prop-2-en-1-one]",> 100,160 to 162
"O=C(/C=C/c1cn(Cc2ccccc2)c2ccccc12)c1ccc(Cl)cc1 [Compound 25d, (E)-3–(1-benzyl-1H-indol-3-yl)-1–(4-chlorophenyl)prop-2-en-1-one]",> 100,163 to 165
"O=C(/C=C/c1cn(S(=O)(=O)c2ccccc2)c2ccccc12)c1ccc(Cl)cc1 [Compound 25e, (E)-1–(4-chlorophenyl)-3–(1-(phenylsulfonyl)-1H-indol-3-yl)prop-2-en-1-one]",> 100,162 to 165
"COc1ccc(C(=O)/C=C/c2cn(C)c3ccccc23)cc1 [Compound 26a, (E)-1–(4-Methoxyphenyl)-3–(1-methyl-1H-indol-3-yl)prop-2-en-1-one]",85.7 ± 2.5,160 to 162
"CCn1cc(/C=C/C(=O)c2ccc(OC)cc2)c2ccccc21 [Compound 26b, (E)-3–(1-Ethyl-1H-indol-3-yl)-1–(4-methoxyphenyl)prop-2-en-1-one]",78.8 ± 1.3,165 to 168
"CCCn1cc(/C=C/C(=O)c2ccc(OC)cc2)c2ccccc21 [Compound 26c, (E)-1–(4-Methoxyphenyl)-3–(1-propyl-1H-indol-3-yl)prop-2-en-1-one]",72.5 ± 1.7,161 to 162
"COc1ccc(C(=O)/C=C/c2cn(Cc3ccccc3)c3ccccc23)cc1 [Compound 26d, (E)-3–(1-Benzyl-1H-indol-3-yl)-1–(4-methoxyphenyl)prop-2-en-1-one]",75.8 ± 2.6,161 to 163
"COc1cccc(C(=O)/C=C/c2cn(C)c3ccccc23)c1 [Compound 27a, (E)-1–(3-Methoxyphenyl)-3–(1-methyl-1H-indol-3-yl)prop-2-en-1-one]",> 100,161 to 162
"CCn1cc(/C=C/C(=O)c2cccc(OC)c2)c2ccccc21 [Compound 27b, (E)-3–(1-Ethyl-1H-indol-3-yl)-1–(3-methoxyphenyl)prop-2-en-1-one]",> 100,165 to 166
"COc1cccc(C(=O)/C=C/c2cn(Cc3ccccc3)c3ccccc23)c1 [Compound 27d, (E)-3–(1-Benzyl-1H-indol-3-yl)-1–(3-methoxyphenyl)prop-2-en-1-one]",> 100,161 to 163
"COc1cccc(C(=O)/C=C/c2cn(S(=O)(=O)c3ccccc3)c3ccccc23)c1 [Compound 27e, (E)-1–(3-Methoxyphenyl)-3–(1-(phenylsulfonyl)-1H-indol-3-yl)prop-2-en-1-one]",87.2 ± 1.4,167 to 168
"Cn1cc(/C=C/C(=O)c2ccc(C(F)(F)F)cc2)c2ccccc21 [Compound 28a, (E)-3–(1-Methyl-1H-indol-3-yl)-1–(4-(trifluoromethyl)phenyl)prop-2-en-1-one]",> 100,160 to 162
"CCn1cc(/C=C/C(=O)c2ccc(C(F)(F)F)cc2)c2ccccc21 [Compound 28b, (E)-3–(1-ethyl-1H-indol-3-yl)-1–(4-(trifluoromethyl)phenyl)prop-2-en-1-one]",> 100,165 to 168
"CCCn1cc(/C=C/C(=O)c2ccc(C(F)(F)F)cc2)c2ccccc21 [Compound 28c, (E)-3–(1-Propyl-1H-indol-3-yl)-1–(4-(trifluoromethyl)phenyl)prop-2-en-1-one]",26.8 ± 4.6,161 to 162
"O=C(/C=C/c1cn(Cc2ccccc2)c2ccccc12)c1ccc(C(F)(F)F)cc1 [Compound 28d, (E)-3–(1-Benzyl-1H-indol-3-yl)-1–(4-(trifluoromethyl)phenyl)prop-2-en-1-one]",> 100,160 to 163
"CCn1cc(/C=C/C(=O)c2cc(OC)c(OC)c(OC)c2)c2ccccc21 [Compound 29b, (E)-3–(1-Ethyl-1H-indol-3-yl)-1–(3,4,5-trimethoxyphenyl)prop-2-en-1-one]",> 100,155 to 158
"CCCn1cc(/C=C/C(=O)c2cc(OC)c(OC)c(OC)c2)c2ccccc21 [Compound 29c, (E)-3–(1-Propyl-1H-indol-3-yl)-1–(3,4,5-trimethoxyphenyl)prop-2-en-1-one]",> 100,162 to 164
